This data set can be described thus: Solubility in water. In kind it is physicochemical. Particulars: water at 20° C.

Bounds are passed on as bounds.

The term solubility denotes how much of the substance goes into solution per volume.

`CN/C(=N\[N+](=O)[O-])NCc1cnc(Cl)s1` [compound (II)] showed a solubility not above 300 µg/mL.

The values are drawn from US20010014347A1, “WETTABLE OR WATER-SOLUBLE GRANULAR AGROCHEMICAL COMPOSITION” (priority 1997, published 2001).
